Measured values reported in ChEMBL document CHEMBL1201862, “PubChem BioAssay data set” (2004).
The source made the active and inactive calls.

Legend:
[1] = biological target: Ubiquitin carboxyl-terminal hydrolase BAP1 (Homo sapiens, UniProt Q92560); assay: inhibition of BAP1 ubiquitin hydrolase activity – biochemical, dose response (AID 714); assay type: functional
[2] = biological target: NAD-dependent protein deacylase sirtuin-5, mitochondrial (Homo sapiens, UniProt Q9NXA8); assay: sirtuin-5 deacylation blockers, concentration series – biochemical, fluorescence imaging, cherry-pick, set 5, dose response (AID 720591);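 further: desuccinylation of succinyl peptide AMC substrate read as fluorescence after trypsin release; potency of inhibitors that lower fluorescence and may act on trypsin instead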
Chain of NAD-dependent protein deacylase sirtuin-5, mitochondrial (Q9NXA8 whole entry): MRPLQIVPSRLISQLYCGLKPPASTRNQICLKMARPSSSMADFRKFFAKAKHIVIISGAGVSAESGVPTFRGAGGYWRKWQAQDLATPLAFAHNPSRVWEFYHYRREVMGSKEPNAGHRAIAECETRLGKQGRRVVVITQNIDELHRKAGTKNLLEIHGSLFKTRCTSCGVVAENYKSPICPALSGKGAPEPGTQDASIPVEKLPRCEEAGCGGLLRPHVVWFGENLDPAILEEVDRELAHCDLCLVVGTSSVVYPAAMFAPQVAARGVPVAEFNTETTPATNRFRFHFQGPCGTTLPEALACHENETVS

Kallikrein-7 = Kallikrein-7 (Homo sapiens, UniProt P49862); assay: Fluorescence Intensity-based biochemical primary high throughput dose response assay to identify activators of kallikrein-7 (K7) zymogen.
Chain of Kallikrein-7 (P49862 whole entry): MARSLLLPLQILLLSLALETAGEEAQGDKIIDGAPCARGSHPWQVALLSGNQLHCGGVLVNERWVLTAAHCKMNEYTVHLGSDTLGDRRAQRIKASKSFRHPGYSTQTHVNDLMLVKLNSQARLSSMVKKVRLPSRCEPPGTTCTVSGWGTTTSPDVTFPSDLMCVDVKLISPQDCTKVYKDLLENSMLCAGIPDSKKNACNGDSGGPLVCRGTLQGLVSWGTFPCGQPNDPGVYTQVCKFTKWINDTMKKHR

Estrogen receptor beta [3] = biological target: T1, Estrogen receptor beta (Homo sapiens, UniProt Q92731);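 further: recombinant ER-beta bound to coactivator SRC1 peptide in presence of estradiol agonist; inhibitors block coactivator peptide binding and lower the FRET signal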
T1 sequence (Q92731 whole entry): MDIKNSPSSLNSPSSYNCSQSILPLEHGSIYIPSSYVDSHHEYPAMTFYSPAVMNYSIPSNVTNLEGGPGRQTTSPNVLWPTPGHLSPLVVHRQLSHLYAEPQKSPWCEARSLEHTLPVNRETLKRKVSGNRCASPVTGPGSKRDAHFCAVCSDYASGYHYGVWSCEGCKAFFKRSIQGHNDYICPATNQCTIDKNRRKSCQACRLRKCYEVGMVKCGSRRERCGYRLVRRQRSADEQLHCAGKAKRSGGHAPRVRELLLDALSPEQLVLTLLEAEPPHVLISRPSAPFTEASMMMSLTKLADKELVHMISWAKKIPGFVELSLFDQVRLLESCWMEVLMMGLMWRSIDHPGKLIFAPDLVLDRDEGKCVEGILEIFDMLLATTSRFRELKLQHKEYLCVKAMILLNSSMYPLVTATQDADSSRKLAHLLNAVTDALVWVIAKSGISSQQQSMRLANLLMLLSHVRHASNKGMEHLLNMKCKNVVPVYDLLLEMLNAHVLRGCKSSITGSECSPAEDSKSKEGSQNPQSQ

[4] = biological target: T2, Low molecular weight phosphotyrosine protein phosphatase (Homo sapiens, UniProt P24666); assay type: functional; settings: read-out: IC50_Mean;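 further: Dose-response confirmation assay measuring inhibition of LMPTP enzyme activity by fluorescence intensity read-out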
T2 sequence (P24666 whole entry): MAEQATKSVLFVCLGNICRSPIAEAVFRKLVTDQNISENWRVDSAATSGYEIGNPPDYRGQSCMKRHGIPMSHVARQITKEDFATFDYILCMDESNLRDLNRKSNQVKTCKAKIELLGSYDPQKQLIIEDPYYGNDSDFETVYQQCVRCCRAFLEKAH

[5] = IC50 of Artemis nuclease activity blockers – biochemical, fluorescence intensity, dose response (AID 720701); assay type: functional;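 further: Artemis endonuclease enzyme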
[6] = biological target: Glutathione-S-transferase (Schistosoma japonicum, UniProt Q26513); assay: GST-antibody interaction or FRET quenching – biochemical, TR-FRET, artefact control for Vif-APOBEC3G degradation inhibitor project, dose response (AID 1117362); assay type: functional
Chain of Glutathione-S-transferase (Q26513 whole entry, the tested form may be a part): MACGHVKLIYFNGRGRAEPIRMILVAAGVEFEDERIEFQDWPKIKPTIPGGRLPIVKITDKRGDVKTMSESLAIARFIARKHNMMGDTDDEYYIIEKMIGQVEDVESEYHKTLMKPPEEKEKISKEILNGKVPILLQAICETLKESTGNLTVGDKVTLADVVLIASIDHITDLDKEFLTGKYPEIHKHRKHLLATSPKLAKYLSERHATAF

[7] = biological target: T3, Polyadenylate-binding protein 1 (Homo sapiens, UniProt P11940); assay: MLLE domain peptide-binding blockers, IC50 – biochemical, fluorescence polarization, FITC-PAM2 peptide, dose response (AID 602259); assay type: functional; settings: read-out: IC50_Mean
T3 sequence (P11940 whole entry, the tested form may be a part): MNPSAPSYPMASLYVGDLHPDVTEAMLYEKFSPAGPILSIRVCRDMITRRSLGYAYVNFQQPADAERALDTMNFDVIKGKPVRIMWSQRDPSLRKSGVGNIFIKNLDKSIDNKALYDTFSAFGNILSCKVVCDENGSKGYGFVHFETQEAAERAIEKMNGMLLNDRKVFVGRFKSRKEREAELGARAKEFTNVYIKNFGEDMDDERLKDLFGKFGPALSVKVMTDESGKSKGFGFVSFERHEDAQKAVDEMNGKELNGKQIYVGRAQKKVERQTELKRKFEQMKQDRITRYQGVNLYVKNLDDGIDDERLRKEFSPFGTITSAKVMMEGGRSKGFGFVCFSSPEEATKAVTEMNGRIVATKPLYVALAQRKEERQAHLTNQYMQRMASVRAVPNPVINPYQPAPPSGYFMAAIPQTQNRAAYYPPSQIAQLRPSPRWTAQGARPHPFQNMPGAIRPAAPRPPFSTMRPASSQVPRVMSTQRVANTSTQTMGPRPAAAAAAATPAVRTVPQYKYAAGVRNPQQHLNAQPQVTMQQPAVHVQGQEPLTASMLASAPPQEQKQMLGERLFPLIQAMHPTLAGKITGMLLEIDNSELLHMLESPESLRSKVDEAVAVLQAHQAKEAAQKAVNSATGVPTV

[8] = biological target: T3, Polyadenylate-binding protein 1; assay: MLLE binding blockers, Cy5 peptide tracer – biochemical, fluorescence polarization, Cy5-PAM2 peptide, secondary, miRNA deadenylation inhibitor project, dose response (AID 602260); assay type: functional; settings: read-out: IC50_Mean
[9] = biological target: T4, Zinc finger protein mex-5 (Caenorhabditis elegans, UniProt Q9XUB2); assay: potency of MEX-5 RNA-binding blockers – biochemical, C. elegans, fluorescence polarization, dose response (AID 1960)
T4 sequence (Q9XUB2 whole entry): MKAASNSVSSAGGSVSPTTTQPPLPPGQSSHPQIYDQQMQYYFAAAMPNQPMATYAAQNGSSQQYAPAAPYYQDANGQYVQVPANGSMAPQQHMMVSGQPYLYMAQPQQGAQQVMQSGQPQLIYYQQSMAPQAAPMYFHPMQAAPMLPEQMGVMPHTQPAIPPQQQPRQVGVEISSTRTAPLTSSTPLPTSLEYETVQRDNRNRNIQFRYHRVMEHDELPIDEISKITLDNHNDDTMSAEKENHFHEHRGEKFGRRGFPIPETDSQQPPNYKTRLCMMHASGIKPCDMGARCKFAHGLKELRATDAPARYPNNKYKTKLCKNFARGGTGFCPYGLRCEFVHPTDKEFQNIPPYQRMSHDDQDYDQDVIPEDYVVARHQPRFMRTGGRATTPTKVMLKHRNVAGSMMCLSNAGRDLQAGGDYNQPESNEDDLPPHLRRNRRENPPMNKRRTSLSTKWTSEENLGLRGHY

[10] = biological target: T5, RNA-binding protein pos-1 (Caenorhabditis elegans, UniProt G5EF15); assay: disruptors of C. elegans POS-1 RNA interaction – biochemical, fluorescence polarization, dose response (AID 1964);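 further: purified POS-1 fused to maltose binding protein made in E. coli; potency of compounds blocking POS-1 binding to fluorescent RNA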
T5 sequence (G5EF15 whole entry): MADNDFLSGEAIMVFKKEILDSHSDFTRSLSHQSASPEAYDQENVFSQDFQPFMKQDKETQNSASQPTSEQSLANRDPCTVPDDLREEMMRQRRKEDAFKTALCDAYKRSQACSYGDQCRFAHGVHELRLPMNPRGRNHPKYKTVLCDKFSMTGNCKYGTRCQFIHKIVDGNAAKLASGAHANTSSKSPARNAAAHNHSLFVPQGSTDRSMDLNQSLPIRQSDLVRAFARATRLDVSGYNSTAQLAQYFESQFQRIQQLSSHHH

Estrogen receptor beta [11] = biological target: T1, Estrogen receptor beta; assay: blockers of SRC-3 recruitment to ERβ – biochemical, ELISA, streptavidin-HRP readout, orthogonal assay, confirmation (AID 1060)
Large T antigen = Large T antigen (Simian virus 40, UniProt P03070); assay type: functional, Betapolyomavirus macacae;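 further: Confirmatory-stage PubChem screen for compounds that inhibit SV40 T antigen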
Chain of Large T antigen (P03070 whole entry): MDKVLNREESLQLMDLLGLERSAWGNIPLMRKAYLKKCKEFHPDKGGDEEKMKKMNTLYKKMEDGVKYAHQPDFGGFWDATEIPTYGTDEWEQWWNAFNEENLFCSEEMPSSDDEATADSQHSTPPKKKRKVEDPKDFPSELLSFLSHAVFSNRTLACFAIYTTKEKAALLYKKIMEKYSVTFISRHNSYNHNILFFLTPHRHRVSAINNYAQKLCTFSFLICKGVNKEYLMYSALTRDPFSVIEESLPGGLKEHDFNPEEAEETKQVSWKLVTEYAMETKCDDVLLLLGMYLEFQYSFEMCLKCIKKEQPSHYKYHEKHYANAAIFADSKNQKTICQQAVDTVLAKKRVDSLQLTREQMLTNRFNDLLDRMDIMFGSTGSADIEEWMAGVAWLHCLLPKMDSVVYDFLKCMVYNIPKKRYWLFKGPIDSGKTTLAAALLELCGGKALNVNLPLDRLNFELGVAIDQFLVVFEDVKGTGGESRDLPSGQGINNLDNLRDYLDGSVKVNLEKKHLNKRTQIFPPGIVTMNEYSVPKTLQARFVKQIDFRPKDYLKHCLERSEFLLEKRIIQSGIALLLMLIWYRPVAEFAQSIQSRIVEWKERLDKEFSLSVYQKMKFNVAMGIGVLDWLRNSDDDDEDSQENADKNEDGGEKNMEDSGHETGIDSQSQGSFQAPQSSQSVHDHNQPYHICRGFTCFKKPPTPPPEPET

Bcl-2-like protein 10 = biological target: T6, Bcl-2-like protein 10 (Homo sapiens, UniProt Q9HD36); assay: Bcl-B/TR3 peptide binding disruption – biochemical, fluorescence polarization, FITC-TR3 peptide, selectivity assay for Bfl-1 inhibitor project, primary screen (AID 748);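 further: fluorescence polarization from a fluorescein-labelled TR3 peptide binding purified Bcl-B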
T6 sequence (Q9HD36 whole entry): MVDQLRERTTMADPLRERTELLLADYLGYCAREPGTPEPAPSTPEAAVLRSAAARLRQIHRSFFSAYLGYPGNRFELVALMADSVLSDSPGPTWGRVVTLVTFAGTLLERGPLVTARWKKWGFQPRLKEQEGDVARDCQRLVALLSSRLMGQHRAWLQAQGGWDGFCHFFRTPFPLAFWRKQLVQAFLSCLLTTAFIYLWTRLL

Genome polyprotein = Genome polyprotein (dengue virus type 2, UniProt P29990); assay: flavivirus cap methylation enzyme inhibition – biochemical, confirmation dose response, primary screen (AID 588689); assay type: functional
Chain of Genome polyprotein (P29990 2492-3391 limits assumed): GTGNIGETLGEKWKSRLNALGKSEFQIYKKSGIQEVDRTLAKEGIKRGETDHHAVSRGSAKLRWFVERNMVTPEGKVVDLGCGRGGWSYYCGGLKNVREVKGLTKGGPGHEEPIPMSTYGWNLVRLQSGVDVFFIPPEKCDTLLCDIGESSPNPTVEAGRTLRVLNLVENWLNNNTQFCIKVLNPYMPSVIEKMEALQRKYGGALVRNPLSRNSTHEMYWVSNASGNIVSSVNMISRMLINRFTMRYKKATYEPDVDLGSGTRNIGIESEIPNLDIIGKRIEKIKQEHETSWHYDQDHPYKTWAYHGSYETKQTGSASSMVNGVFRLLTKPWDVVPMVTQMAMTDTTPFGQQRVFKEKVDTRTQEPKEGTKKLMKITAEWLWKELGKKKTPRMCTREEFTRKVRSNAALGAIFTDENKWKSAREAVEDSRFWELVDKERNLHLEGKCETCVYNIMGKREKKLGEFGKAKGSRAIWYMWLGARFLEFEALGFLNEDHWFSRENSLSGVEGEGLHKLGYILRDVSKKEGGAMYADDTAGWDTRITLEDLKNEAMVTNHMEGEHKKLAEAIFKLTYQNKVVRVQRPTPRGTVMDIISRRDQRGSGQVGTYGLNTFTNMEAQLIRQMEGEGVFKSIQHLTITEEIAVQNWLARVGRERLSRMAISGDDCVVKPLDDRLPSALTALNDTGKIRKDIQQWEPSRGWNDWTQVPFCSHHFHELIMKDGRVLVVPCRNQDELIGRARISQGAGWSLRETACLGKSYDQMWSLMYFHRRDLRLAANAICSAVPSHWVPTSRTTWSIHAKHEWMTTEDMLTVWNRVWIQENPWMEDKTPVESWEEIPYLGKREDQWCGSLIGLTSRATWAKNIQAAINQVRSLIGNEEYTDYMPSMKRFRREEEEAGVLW

[12] = test system: Streptococcus sp. 'group A'; assay: Streptococcus pyogenes SK(-)GAS viability under kanamycin – luminescence, BacTiterGlo, confirmation, counter-screen for streptokinase expression inhibitor project, dose response (AID 1900); assay type: functional, organism-based
Streptococcus = assay: GAS UMAA2166 growth inhibition – luminescence, BacTiterGlo, counter-screen for streptokinase expression inhibitor project, dose response (AID 1915); assay type: functional, organism-based;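 further: potency for reduction of bacterial viability or growth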
[13] = Trypanosoma cruzi growth suppression in host cells – NIH3T3 host cells, beta-gal luminescence, confirmation (AID 2044); assay type: functional, cell-based;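 further: intracellular parasites grown in NIH/3T3 mouse fibroblasts as host cells; luminescent beta-galactosidase reporter signal from transgenic T. cruzi replicating inside host cells; inhibitors lower the luminescence signal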
[14] = NIH3T3 cell viability loss – ATP luminescence, mouse fibroblasts, counter-screen, dose response (AID 2010); assay type: functional, cell-based;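 further: cells exposed to compound for about 90 hours before reading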
[15] = viability loss in Vero cells – cytotoxicity control for Vif-APOBEC3G degradation inhibitor project, dose response (AID 1117358); assay type: functional; settings: Vero
[16] = biological target: E3 ubiquitin-protein ligase Mdm2 (Homo sapiens, UniProt Q00987); assay: MDM2-luc reporter signal enhancers, multi-concentration potency testing, MDM2 ubiquitin-protein ligase inhibitor program, whole-cell format, luminescence detection, 384-well microplate (AID 1394); assay type: functional;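 further: MDM2 E3 inhibitors raise luminescence so EC50 is for signal enhancement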
Chain of E3 ubiquitin-protein ligase Mdm2 (Q00987 whole entry): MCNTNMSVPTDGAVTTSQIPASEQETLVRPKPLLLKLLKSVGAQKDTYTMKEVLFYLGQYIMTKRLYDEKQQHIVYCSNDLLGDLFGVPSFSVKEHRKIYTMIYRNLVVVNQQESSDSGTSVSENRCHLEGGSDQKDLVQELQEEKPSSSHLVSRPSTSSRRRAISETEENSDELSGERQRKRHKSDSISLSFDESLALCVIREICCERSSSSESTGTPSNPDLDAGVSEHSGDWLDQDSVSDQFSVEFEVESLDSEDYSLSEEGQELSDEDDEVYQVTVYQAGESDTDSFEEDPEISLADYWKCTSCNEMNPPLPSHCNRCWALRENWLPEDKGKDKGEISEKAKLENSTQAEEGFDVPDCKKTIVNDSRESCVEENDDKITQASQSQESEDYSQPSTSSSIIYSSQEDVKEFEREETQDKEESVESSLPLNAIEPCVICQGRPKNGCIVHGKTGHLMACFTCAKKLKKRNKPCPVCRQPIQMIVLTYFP

Chain of Ubiquitin carboxyl-terminal hydrolase BAP1 (Q92560 whole entry): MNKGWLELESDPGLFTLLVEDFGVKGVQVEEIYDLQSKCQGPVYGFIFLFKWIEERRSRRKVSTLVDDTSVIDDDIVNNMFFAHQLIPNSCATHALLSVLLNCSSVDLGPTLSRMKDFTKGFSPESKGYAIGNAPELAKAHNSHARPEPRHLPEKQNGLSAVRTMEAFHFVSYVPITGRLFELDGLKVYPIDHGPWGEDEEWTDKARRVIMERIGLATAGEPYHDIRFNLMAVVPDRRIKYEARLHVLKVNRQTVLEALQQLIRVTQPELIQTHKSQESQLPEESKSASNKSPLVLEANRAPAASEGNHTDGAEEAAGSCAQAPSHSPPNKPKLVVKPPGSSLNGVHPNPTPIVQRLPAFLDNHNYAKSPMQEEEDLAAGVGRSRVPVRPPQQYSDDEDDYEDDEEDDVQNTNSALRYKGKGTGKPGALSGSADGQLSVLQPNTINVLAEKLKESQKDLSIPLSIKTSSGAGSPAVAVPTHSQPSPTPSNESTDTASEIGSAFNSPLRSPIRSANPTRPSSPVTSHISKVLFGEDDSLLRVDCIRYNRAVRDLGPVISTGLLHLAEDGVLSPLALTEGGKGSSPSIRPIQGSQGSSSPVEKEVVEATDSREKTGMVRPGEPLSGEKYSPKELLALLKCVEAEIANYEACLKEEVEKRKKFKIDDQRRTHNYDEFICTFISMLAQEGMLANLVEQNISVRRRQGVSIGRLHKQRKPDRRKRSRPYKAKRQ

For `Nc1nn(S(=O)(=O)c2cccc3nsnc23)cc1-c1ccc(Br)cc1`, the IC50 [1] was > 50 µM (not active).

For `O=C(Cc1nnc(NC(=O)Nc2ccc(Cl)cc2)s1)NCc1ccccc1`, the AC50 [2] was > 30 µM (inactive).

For `COc1ccc(NC(=O)c2cc(-c3ccco3)on2)cc1OC`, the EC50 (Kallikrein-7) was 13.1 µM (inactive).

For `CC(C)COC(=O)c1nnsc1NC(=O)Nc1ccccc1`, the IC50 (Estrogen receptor beta [3]) was > 50 µM (not active).

In the case of `O=C1CC(c2ccco2)Cc2nc(Nc3nc(-c4ccccc4)c4ccccc4n3)ncc21` (stereo unspecified), the IC50 [4] is reported as 10.9 µM (active) and the IC50 [5] is reported as > 20 µM (inactive).

In the case of `O=c1oc2c3c4c(cc2s1)CCCN4CCC3`, the IC50 [6] is reported as 66.2 µM (active), the IC50 [7] is reported as 48 µM (inactive) and the IC50 [8] is reported as > 66 µM (inactive). For the same molecule, the EC50 [9] was 24.1 µM (inconclusive), the EC50 [10] was 28.1 µM (active) and the IC50 (Estrogen receptor beta [11]) was > 50 µM (not active). For the same molecule, the IC50 (Large T antigen) was 17.9 µM (active), the IC50 (Bcl-2-like protein 10) was 10.4 µM (active) and the IC50 (Genome polyprotein) was 86.7 µM (active).

With `O=C(Nc1nnc(C2CC2)o1)c1ccc(S(=O)(=O)N2CCCc3ccccc32)cc1` the EC50 [12] was 2.46 µM (active), the EC50 (Streptococcus) was 4 µM (active) and the EC50 [13] was 1.4 µM (active). For the same molecule, the EC50 [14] was 5.11 µM (active) and the CC50 [15] was 15.1 µM (active).

For `COc1ccc(C(=O)NCCSC2CCCCC2)cc1`, the EC50 [16] was 13.6 µM (not active).
